Reference: US11014952B2, “Stable hydrolysis-resistant synthetic polyribosylribitolphosphate derivatives as vaccines against Haemophilus influenzae type b” (MAX-PLANCK-GESELLSCHAFT ZUR FÖRDERUNG DER WISSENSCHAFTEN …, priority 2016, dated 2021)

Experiments:
[1] = tested on: anti-Hib antibodies present in human reference serum; assay: Glycan array analysis with Hib human reference serum; assay type: binding; conditions: for inhibition of binding by natural Hib PRP: Hib PRP inhibitor present (FIG. 17A); for binding of anti-Hib antibodies to printed saccharide: no inhibitor (FIG. 17A)
Protocol: (§1) Saccharides in PBS were printed on N-Hydroxy succinimide activated glass slides (CodeLink slides, Surmodics) using an S3 microarray spotter (Scienion). Slides were incubated overnight in a humidity saturated chamber, quenched for 2 h with 100 mM ethanolamine, 50 mM sodium phosphate, pH 7.5, washed with water and dried.
(§2) For incubation, slides were blocked for 1 h with 3% (w/v) BSA-PBS, washed with PBS and water, and dried by centrifugation. A 64 well incubation grid was attached. Sera were diluted in 3% BSA-PBS, 0.1% (v/v) Tween-20, incubated at 37° C. for 15 min, and centrifuged for 2 min at 3220 rpm. Serum dilutions were applied to the slide and incubated for 1 h at room temperature. Wells were washed three times with PBS+0.1% Tween-20 (PBS-T). Secondary antibodies (anti-rabbit IgG FITC, anti-rabbit IgM AlexaFluor 647, anti-human IgG-Fc AlexaFluor 488 and IgM AlexaFluor 594) were incubated on the slides for 30 min at r.t. Wells were washed twice with PBS-T, the incubation grid was removed, and the slide washed with PBS and water. After drying by centrifugation, the slide was scanned using a GenePix 4300A (Molecular Devices) microarray reader.

[2] = tested on: antibodies raised by immunization with compound 94; assay: Glycan array: binding of printed saccharides to antibodies raised by immunization with compound 94; design: species or system rabbit; conditions: sera of rabbits immunized with conjugate 94 with and without Alhydrogel (FIG. 17C, D)
Protocol: Four groups with four rabbits per each group were immunized in a prime-boost regime with unadjuvanted conjugate 94 containing 5 μg saccharide 29 or conjugate 94 (containing 5 μg Hib saccharide 29) adjuvanted with Alhydrogel. The negative control group received PBS/Alhydrogel only. The positive control group received the approved vaccine ActHIB® (5 μg PRP, corresponding to half the human dose), a conjugate of native PRP to tetanus toxoid (TT). Preimmune serum and antiserum of bleeding day 21 (following two immunizations) were taken and analyzed on a glycan array. The ActHIB-specific serum was obtained after three administrations in contrast to two immunisations of the HIB analogues of the present invention.
as §1, §2
The primary immune response was assessed by glycan array screening of serum samples retrieved at day 0, day 21 and day 35. 2′-Methoxyribosylribitolphosphate dimer 19, 2′-methoxyribosylribitolphosphate dimer 24, 2′-Methoxyribosylribitolphosphate tetramer 29, 2′-deoxyribosylribitolphosphate tetramer 53 and 2′-dimethyl-aminocarbonylribosylribitolphosphate 62 as well as natural Hib PRP were printed on NHS ester-activated microarray slides. After immunization with conjugate 94 adjuvanted with Alhydrogel and without adjuvant, antibodies of the IgG and IgM subtypes against the Hib PRP derivatives 19, 24, 29, 53 and 62 as well as against the natural Hib PRP polysaccharide in all immunized rabbits were detected.

[3] = Stability in basic medium (0.1 M NaOH); assay type: physicochemical; conditions: for cleaved completely after: aqueous basic conditions as applied in Example H-1 (0.1 M NaOH)
Protocol: Stability study of the inventive saccharides is critical for the development of stable liquid Hib glycoconjugate vaccines. As a control we examined first the stability and cleavage of Hib polyribosylribitolphosphate capsular polysaccharide (CPS). Accordingly, Hib CPS was fragmented using standard procedures as described in Vaccine, 2000, 18, 1982-1993: 1 mg Hib CPS in 0.43 mL of 0.1 M NaOH, 20 h. Fragments obtained after purification (filtered through 30 kDa Amicon filters followed by desalting) were analyzed by ^1H NMR, HPLC and HRMS.
The stability of dimer 16 was further investigated under aqueous basic conditions as applied in Example H-1. From the HPLC chromatogram in FIG. 13D it was concluded that dimer 16 got cleaved completely after 4 days, while the natural Hib CPS got already cleaved completely within 20 hours.
The stability of tetramer 29 was further investigated under aqueous basic conditions as applied in Example H-1. From the HPLC chromatogram in FIG. 13A it was concluded that tetramer 29 got cleaved completely after 4 days, while the natural Hib CPS got already cleaved completely within 20 hours.

[4] = tested on: anti-Hib antibodies in rabbit typing serum; assay: Glycan array analysis with rabbit typing serum; assay type: binding; conditions: for inhibition of binding by natural Hib PRP: Hib PRP inhibitor present (FIG. 17B); for binding of anti-Hib antibodies to printed saccharide: no inhibitor (FIG. 17B)
Protocol: as §1, §2

[5] = Stability in presence of aluminum hydroxide (Alhydrogel), aluminum phosphate, phosphate buffer or water, HPLC; assay type: physicochemical; conditions: for cleavage to smallest fragments observed after: Alhydrogel
Protocol: Having established the stability data of the control Hib CPS, then the stability of Hib CPS in aluminum hydroxide was investigated, where it is known to be unstable in a vaccine formulation {0.5 mg Hib CPS, 3 mL Alhydrogel® (Brentag) and 22 mL milli-Q water} at various temperatures {37° C. (A1) and rt (A3)}. At 37° C. cleavage to smallest fragments were observed after 2 days and at rt this pattern was observed after day 7 (FIG. 6). From this experiment it was confirmed that, Hib CPS decomposes to 2 and 3-O phosphate fragments in 2 to 7 days depending on temperature in Aluminum hydroxide the most common adjuvant used in commercial vaccines.
Stability studies of synthesized 2′-methoxyribosylribitolphosphate dimer 16 were conducted in presence of various adjuvants. As a first step stability of 16 was studied using Al(OH)3, AlPO4 and water at various temperatures {37° C. (A1), 2-8° C. (A2), rt (A3) and 70° C. (A4)}.
The amount of Al(OH)3 and AlPO4 used for this study was similar to the amount present in commercial Hib vaccines. Compounds 16 and 8 were used as reference since decomposition of dimer 16 should lead to monomer 8. Every 24 h 40 μL of solution was aliquoted from each vial and centrifuged for 4 min at 5000 rpm. Supernatant (25 μL) was taken for HPLC analysis. […] From this study it was clear that 2′-methoxyribosylribitol dimer 16 was stable at 37° C. (A1), 2-8° C. (A2), r.t. (A3) and at 70° C.
Stability studies of synthesized 2′-methoxyribosylribitolphosphate tetramer bearing a linker 29 were conducted in presence of various adjuvants. As a first step stability of 29 was studied using Al(OH)3, phosphate buffer (PBS) and water at various temperatures {2-8° C. (A2), and r.t. (A3)}.
The amount of Al(OH)3 used for this study was similar to the amount present in commercial Hib vaccines. Compounds 29, 16 and 8 were used as reference since decomposition of tetramer 29 should lead to dimer 16 and monomer 8. Every 24 h 40 μL of solution was aliquoted from each vial and centrifuged for 4 min at 5000 rpm. Supernatant (25 μL) was taken for HPLC analysis. […] From this study it was clear that 2′-methoxyribosylribitolphosphate tetramer 29 is stable in presence of Al(OH)3, in phosphate buffer (PBS) and in water at 2-8° C. (A2) and r.t. (A3).

| Molecule | inhibition of binding by natural Hib PRP [1] | binding of anti-Hib antibodies to printed saccharide [1] | antibodies of the IgG and IgM subtypes against the saccharide after immunization with conjugate 94 [2] | cleaved completely after ([3]; HPLC) | inhibition of binding by natural Hib PRP [4] | binding of anti-Hib antibodies to printed saccharide [4] | also measured |
| --- | --- | --- | --- | --- | --- | --- | --- |
| 2′-Methoxyribosylribitolphosphate tetramer [Compound 29] | inhibits the binding | bind | detected | 4 days | inhibits the binding | bind | stability ([5]; Al(OH)3, phosphate buffer (PBS) and water, 2-8° C. (A2)): stable; decomposition after 7 days (HPLC) ([5]; Al(OH)3, phosphate buffer (PBS) and water, 2-8° C. and r.t.): no decomposition was observed; stability ([5]; Al(OH)3, phosphate buffer (PBS) and water, r.t. (A3)): stable |
| COC1C(O)[C@@H](CO)O[C@H]1OCC(O)C(O)C(O)COP(=O)(O)OC1C(OC)[C@H](OCC(O)C(O)C(O)COP(=O)(O)OCCCCCN)O[C@@H]1CO (stereo partly drawn) [Compound 19, 2′-Methoxyribosylribitolphosphate dimer] | inhibits the binding | bind | detected | – | inhibits the binding | bind | – |
| 2′-deoxyribosylribitolphosphate tetramer [Compound 53] | not | bind | detected | – | not | bind | – |
| Hib polyribosylribitolphosphate capsular polysaccharide [Hib CPS, reference compound] | – | – | detected | – | – | – | cleavage products in basic medium ([3]; 0.1 M NaOH, 20 h, 1H NMR, HPLC, HRMS): cleaved to its smallest 2 and 3-0 phosphate fragments; time to complete hydrolysis / cleavage under basic conditions ([3]; 0.1 M sodium hydroxide solution): ≤ 20 h; stability in basic aqueous media or in the presence of aluminum salts ([3]; basic aqueous media, suspensions with aluminum phosphate or aluminum hydroxide): hydrolyzes within one day; cleavage to smallest fragments observed after ([5]; 37° C.): 2 days; cleavage to smallest fragments observed after ([5]; rt): 7 days |
| COC1C(O)[C@@H](CO)O[C@H]1OCC(O)C(O)C(O)COP(=O)(O)OC1C(OC)[C@H](OCC(O)C(O)C(O)CO)O[C@@H]1CO (stereo partly drawn) [Compound 16, 2′-methoxyribosylribitolphosphate dimer] | – | – | – | 4 days | – | – | stability ([5]; Al(OH)3, AlPO4 and water, 2-8° C. (A2), 7 days): stable; stability ([5]; Al(OH)3, AlPO4 and water, 37° C. (A1), 7 days): stable; decomposition after 7 days (HPLC) ([5]; Al(OH)3, AlPO4 and water, 37° C., 2-8° C., rt and 70° C.): no decomposition was observed; stability ([5]; Al(OH)3, AlPO4 and water, 70° C., 7 days): stable; stability ([5]; Al(OH)3, AlPO4 and water, r.t. (A3), 7 days): stable |
| COC1C(OP(=O)(O)OCCCCCN)[C@@H](CO)O[C@H]1OCC(O)C(O)C(O)COP(=O)(OCc1ccccc1)OC1C(OC)[C@H](OCC(O)C(O)C(O)CO)O[C@@H]1CO (stereo partly drawn) [Compound 24, 2′-methoxyribosylribitolphosphate dimer] | inhibits the binding | bind | detected | – | inhibits the binding | bind | – |
